Assay results as given in patent publication US20200384124A1, “VECTOR FOR PHARMACOLOGICALLY ACTIVE MATER-INSOLUBLE MOLECULES, AND PROCESS OF PREPARING SAME” (priority 2017, published 2020).

Key:
U-87 MG spheroids [1] = assay: 3D culture spheroid viability by Alamar Blue test; assay type: cell-based, human; settings: 2.8 times the IC50, Alamar Blue
Description: Spheroids (cells in 3D culture) help to better represent the tumor environment. They are composed of necrotic cells in their center and proliferating cells in the periphery. […] The cells are maintained at 37° C. and 5% of CO2 and 10 μl of fresh medium are added every two days to all the wells (controls and treated). […] This measurement is done in one step and uses a reagent based on resazurin, which is reduced by living cells. The reduced compound (=resofurin) is detectable by fluorescence (λex=584 nm and λem=620 nm) and the signal measured is proportional to the number of living cells. Once the above treatment has been set up, 10 μL of Alamar Blue are added to each well 7 days or 14 days after treatment and the cells are incubated 12 h before the fluorescence measurement. The data are obtained by reading the fluorescence with POLARstar Omega (BMG LABETCH) after excitation at 584 nm and reading the emission at 620 nm.

[2] = system: microtubular network in U-87-MG and HMEC-1 cells; assay: Indirect immunofluorescence of tubulin, comparison with PTX (Example 24); assay type: cell-based, human; settings: 10, 50 and 100 nM, 6 h of treatment
Description: The U-87-MG and HMEC-1 cells are seeded on Lab-Tek® culture chambers (Nunc). […] After 6 h of treatment, the medium is replaced by a solution of ice-cold methanol making it possible to fix and permeabilize the cells. […] The labeling of the nucleus is carried out with a solution of DAPI or 4,6-diamidino-2-phenylindole (0.25 μg/ml; Sigma) for 2 min. The blade is finally mounted with Prolong® (Invitrogen) antifading. The observation is carried out with an epifluorescence microscope (Leica DM-IRBE) coupled with a digital camera (Princeton Instruments; CCD camera coolsnap FX).

U-87 MG spheroids [3] = assay: 3D culture spheroid size by optical microscopy; assay type: cell-based, human
Description: Spheroids (cells in 3D culture) help to better represent the tumor environment. They are composed of necrotic cells in their center and proliferating cells in the periphery. […] The cells are maintained at 37° C. and 5% of CO2 and 10 μl of fresh medium are added every two days to all the wells (controls and treated). […] Before treatment and then every two days, the spheroids are observed under an optical microscope coupled to a camera (Nikon ECLIPSE TS100), at magnification*4.;

U-87 MG cells = assay: MTT cytotoxicity test of PTX and NPC2-PTX (2D); assay type: cell-based, human
Description: The volume of seeding and treatment is maintained at 150 μL per well and each condition is carried out with a conventional incubation at 37° C. […] This test uses as reagent 3-(4,5-Dimethylthiazol-2-yl)-2,5-Diphenyltetrazolium Bromide (MTT), which is converted into formazan (crystal violet) by living cells. The latter absorbent at the wavelength of 600 nm is detectable by an absorbance measurement.
(§1) As soon as the formazan crystals are visible in the cells under a light field microscope, the medium is replaced by 150 μl of dimethylsulfoxide (DMSO). The cells are then lysed, the formazan crystals dissolved, and the absorbance is measured with a Multiskan spectrophotometer (Ascent, Labtec Systems with a filter at 600 nm.
(§2) The percentage of viability is obtained by comparing the absorbance value of the treated cells with the absorbance value of the untreated control cells, which is considered as a reference and equivalent to 100% of viability. The standard deviation is calculated from 3 independent experiments.

HMEC-1 cells = assay: MTT cytotoxicity test of PTX and NPC2-PTX (2D); assay type: cell-based; settings: Homo sapiens, HMEC-1, 72 h
Description: (§3) The volume of seeding and treatment is maintained at 150 μL per well and each condition is carried out with a conventional incubation at 37° C. A cell viability test is carried out by an MTT test after 72 h of treatment. This test uses as reagent 3-(4,5-Dimethylthiazol-2-yl)-2,5-Diphenyltetrazolium Bromide (MTT), which is converted into formazan (crystal violet) by living cells. The latter absorbent at the wavelength of 600 nm is detectable by an absorbance measurement.
as §1, §2

SK-N-SH cells = assay: MTT cytotoxicity test of PTX and NPC2-PTX (2D); assay type: cell-based; settings: Homo sapiens, 72 h
Description: as §3, §1, §2

CC(=O)O[C@H]1C(=O)[C@@]2(C)[C@H]([C@H](OC(=O)c3ccccc3)[C@]3(O)C[C@H](OC(=O)[C@H](O)[C@@H](NC(=O)c4ccccc4)c4ccccc4)C(C)=C1C3(C)C)[C@]1(OC(C)=O)CO[C@@H]1C[C@@H]2O [PTX, paclitaxel]
decrease / inhibition of cell viability in 3D (U-87 MG spheroids [1]): 10% | effects on microtubular network and cell shape [2]: the microtubular network is disturbed | diameter of the spheroid at day 14 (U-87 MG spheroids [3]; 2.8 times IC50 (PTX 25 nM, NPC2-PTX 70 nM)): 757+/−22 μm | diameter of the spheroid at day 14 (U-87 MG spheroids [3]; 4 times the IC50 (PTX 40 nM, NPC2-PTX 100 nM)): 389+/−33 μm | diameter of the spheroid at day 14 (U-87 MG spheroids [3]; IC50 calculated in 2D (PTX 9 nM, NPC2-PTX 25 nM)): 800+/−11 μm | inhibition of cell viability in 2D (U-87 MG cells; 2.8 times the IC50): 70% | IC50 (U-87 MG cells; Homo sapiens, U-87 MG, 72 h): 9.2 ± 1.2 nM | IC50 (HMEC-1 cells): 5.7 ± 2 nM | IC50 (SK-N-SH cells): 40.5 ± 7.8 nM
